Active and inactive are the calls of the source. The calls are words filed in the database; no cut-off is given here.
Key:
[1] = Binding affinity to biotinylated (5'-AGCAGCAGCA-3'/5'-TGCTGCTGCT-3') hairpin DNA (unknown origin) by SPR assay
[2] = Induction of DNA alkylation of 5'-Texas Red-labeled 214 bp DNA fragments with (CAG)12 repeat sequence (unknown origin) at 150 nmol after 18 hrs by high resolution gel electrophoresis
[3] = Induction of DNA alkylation of 5'-Texas Red-labeled 214 bp DNA fragments with (CTG)12 repeat sequence (unknown origin) at 2.5 to 20 nM after 18 hrs by high resolution gel electrophoresis
[4] = Induction of DNA alkylation of 5'-Texas Red-labeled 214 bp DNA fragments with (CAG)12 repeat sequence (unknown origin) at 2.5 to 20 nM after 18 hrs by high resolution gel electrophoresis
[5] = Induction of DNA alkylation of 5'-Texas Red-labeled 214 bp DNA fragments with (5'-(CAG)12CAA-3' repeat sequence (unknown origin) at 2.5 to 20 nM after 18 hrs by high resolution gel electrophoresis
[6] = Induction of DNA alkylation of DNA fragments with (CTG)12 repeat sequence (unknown origin) assessed as inhibition of T7 RNA polymerase-mediated transcription using T7 promoter primer and sp6 promoter primer at 10 to 30 nM after 18 hrs by […] staining based high resolution gel electrophoresis
[7] = Induction of DNA alkylation of DNA fragments with (CAG)12 repeat sequence (unknown origin) assessed as inhibition of T7 RNA polymerase-mediated transcription using T7 promoter primer and sp6 promoter primer at 10 to 30 nM after 18 hrs by […] staining based high resolution gel electrophoresis
[8] = Induction of DNA alkylation of 5'-Texas Red-labeled 214 bp DNA fragments with (5'-TTG(CTG)12-3' repeat sequence (unknown origin) at 2.5 to 20 nM after 18 hrs by high resolution gel electrophoresis
[9] = Binding affinity to biotinylated (5'-AGCAGCAGCA-3'/5'-TGCTGCTGCT-3') hairpin DNA (unknown origin) assessed as […] of compound from 1:1 compound and DNA complex by SPR assay
[10] = Binding affinity to biotinylated (5'-AGCAGCAGCA-3'/5'-TGCTGCTGCT-3') hairpin DNA (unknown origin) assessed as […] of compound from 2:1 compound and DNA complex by SPR assay

For `CC(=O)Nc1cn(C)c(C(=O)Nc2cc(C(=O)NCCC(=O)Nc3cn(C)c(C(=O)Nc4cc(C(=O)NCCCC(=O)Nc5cn(C)c(C(=O)Nc6cc(C(=O)NCCC(=O)Nc7cn(C)c(C(=O)Nc8cc(C(=O)NCCC(=O)NCCCN(C)CCCN)n(C)c8)n7)n(C)c6)n5)n(C)c4)n3)n(C)c2)n1`, the Kd [1] was 14 nM.
For `CC(=O)Nc1cn(C)c(C(=O)Nc2cc(C(=O)NCCC(=O)Nc3cn(C)c(C(=O)Nc4cc(C(=O)NCCCC(=O)Nc5cn(C)c(C(=O)Nc6cc(C(=O)NCCC(=O)Nc7cn(C)c(C(=O)Nc8cc(C(=O)NCCC(=O)NCCCN(C)CCCNC(=O)CCCc9ccc(N(CCCl)CCCl)cc9)n(C)c8)n7)n(C)c6)n5)n(C)c4)n3)n(C)c2)n1`, the Activity [2] was “Active”, the Activity [3] was “Active” and the Activity [4] was “inactive”.
With `CC(=O)Nc1cn(C)c(C(=O)Nc2cc(C(=O)NCCC(=O)Nc3cn(C)c(C(=O)Nc4cc(C(=O)NCCC(=O)Nc5cn(C)c(C(=O)Nc6cc(C(=O)NCC[C@@H](N)C(=O)Nc7cn(C)c(C(=O)Nc8cc(C(=O)NCCC(=O)Nc9cn(C)c(C(=O)Nc%10cc(C(=O)NCCC(=O)Nc%11cn(C)c(C(=O)Nc%12cc(C(=O)NCCC(=O)NCCCN(C)CCCNC(=O)CCCc%13ccc(N(CCCl)CCCl)cc%13)n(C)c%12)n%11)n(C)c%10)n9)n(C)c8)n7)n(C)c6)n5)n(C)c4)n3)n(C)c2)n1` the Activity [5] was “Active”, the Activity [6] was “Dose-dependent effect” and the Activity [7] was “Dose-dependent effect”. For the same compound, the Activity [8] was “Active”.
For `CC(=O)Nc1cn(C)c(C(=O)Nc2cc(C(=O)NCCC(=O)Nc3cn(C)c(C(=O)Nc4cc(C(=O)NCCC(=O)Nc5cn(C)c(C(=O)Nc6cc(C(=O)NCCCC(=O)Nc7cn(C)c(C(=O)Nc8cc(C(=O)NCCC(=O)Nc9cn(C)c(C(=O)Nc%10cc(C(=O)NCCC(=O)Nc%11cn(C)c(C(=O)Nc%12cc(C(=O)NCCC(=O)NCCCN(C)CCCNC(=O)CCCc%13ccc(N(CCCl)CCCl)cc%13)n(C)c%12)n%11)n(C)c%10)n9)n(C)c8)n7)n(C)c6)n5)n(C)c4)n3)n(C)c2)n1`, the Activity [5] was “Active”, the Activity [3] was “Active” and the Activity [8] was “Active”. The Activity [4] was “Active”.
With `CC(=O)Nc1cn(C)c(C(=O)Nc2cc(C(=O)NCCC(=O)Nc3cn(C)c(C(=O)Nc4cc(C(=O)NCCC(=O)NCCCN(C)CCCN)n(C)c4)n3)n(C)c2)n1` the Kd [9] was 610 nM and the Kd [10] was 13 nM.
In the case of `CC(=O)Nc1cn(C)c(C(=O)Nc2cc(C(=O)NCCC(=O)Nc3cn(C)c(C(=O)Nc4cc(C(=O)NCCC(=O)Nc5cn(C)c(C(=O)Nc6cc(C(=O)NCC[C@@H](N)C(=O)Nc7cn(C)c(C(=O)Nc8cc(C(=O)NCCC(=O)Nc9cn(C)c(C(=O)Nc%10cc(C(=O)NCCC(=O)Nc%11cn(C)c(C(=O)Nc%12cc(C(=O)NCCC(=O)NCCCN(C)CCCN)n(C)c%12)n%11)n(C)c%10)n9)n(C)c8)n7)n(C)c6)n5)n(C)c4)n3)n(C)c2)n1`, the Activity [6] is reported as “inactive”, the Kd [1] is reported as 11 nM and the Activity [7] is reported as “inactive”.
`CC(=O)Nc1cn(C)c(C(=O)Nc2cc(C(=O)NCCC(=O)Nc3cn(C)c(C(=O)Nc4cc(C(=O)NCCC(=O)Nc5cn(C)c(C(=O)Nc6cc(C(=O)NCCCC(=O)Nc7cn(C)c(C(=O)Nc8cc(C(=O)NCCC(=O)Nc9cn(C)c(C(=O)Nc%10cc(C(=O)NCCC(=O)Nc%11cn(C)c(C(=O)Nc%12cc(C(=O)NCCC(=O)NCCCN(C)CCCN)n(C)c%12)n%11)n(C)c%10)n9)n(C)c8)n7)n(C)c6)n5)n(C)c4)n3)n(C)c2)n1` showed a Kd [1] of 53 nM.
For `CC(=O)Nc1cn(C)c(C(=O)Nc2cc(C(=O)NCCC(=O)Nc3cn(C)c(C(=O)Nc4cc(C(=O)NCCC(=O)NCCCN(C)CCCNC(=O)CCCc5ccc(N(CCCl)CCCl)cc5)n(C)c4)n3)n(C)c2)n1`, the Activity [3] was “inactive” and the Activity [4] was “inactive”.

From ChEMBL document CHEMBL3351867, “Sequence-specific DNA alkylation and transcriptional inhibition by long-chain hairpin pyrrole-imidazole polyamide-chlorambucil conjugates targeting CAG/CTG trinucleotide repeats” (Bioorg Med Chem, 2014)
